Laboratory results from patent US7632829B2, “Diazepan derivatives” (Hoffmann-La Roche Inc., priority 2006, dated 2009).

Biological target: T1, human chemokine receptor 2 isoform B (Homo sapiens, UniProt P41597)
T1 construct: host or cells: CHOK1-CCR2B-A5 (CHO-K1)
T1 sequence (P41597 1-360 isoform P41597-2): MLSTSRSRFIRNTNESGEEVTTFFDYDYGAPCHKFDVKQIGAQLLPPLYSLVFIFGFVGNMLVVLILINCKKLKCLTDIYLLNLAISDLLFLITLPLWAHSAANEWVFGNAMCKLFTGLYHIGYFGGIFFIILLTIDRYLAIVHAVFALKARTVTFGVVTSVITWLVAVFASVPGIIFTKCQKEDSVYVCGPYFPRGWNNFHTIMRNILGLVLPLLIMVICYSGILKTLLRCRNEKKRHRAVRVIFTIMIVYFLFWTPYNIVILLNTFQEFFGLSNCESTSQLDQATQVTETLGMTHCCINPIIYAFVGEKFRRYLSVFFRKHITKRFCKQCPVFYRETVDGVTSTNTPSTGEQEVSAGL
Experiment: Calcium mobilization assay (FLIPR, CHOK1-CCR2B-A5 cells, 20 nM MCP-1)
Type: cell-based
Conditions: Ca mobilisation assay, CCR2, antagonist activity vs 20 nM MCP-1
Summary of the method: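 FLIPR Fluo-4 calcium readout in CHO-K1 cells stably overexpressing human CCR2B; compounds first monitored 80 s for agonist activity, then after 20-30 min at 30 °C challenged with 20 nM MCP-1. Response is max minus basal fluorescence; antagonist value is concentration giving 50% inhibition of specific calcium increase.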

Row | Compound | IC50 [nM]
1 | O=C(/C=C/c1ccc(Cl)c(Cl)c1)N1CCC(=O)N(CCCN2CC(O)CCC2CO)CC1 (racemic) [Example 273] | 313
2 | O=C(/C=C/c1ccc(Cl)c(Cl)c1)N1CCC(=O)N(CC(O)CN2CCCC(O)C2)CC1 (racemic) [Example 281] | 129
3 | O=C(/C=C/c1ccc(Cl)c(Cl)c1)N1CCC(=O)N(CC(O)CN2CC[C@@H](F)[C@H](O)C2)CC1 (mixture of isomers) [Example 284] | 717
4 | CC1CCCN(CC(O)CN2CCN(C(=O)/C=C/c3ccc(Cl)c(Cl)c3)CCC2=O)C1 (racemic) [Example 288] | 206
5 | O=C(/C=C/c1ccc(Cl)c(Cl)c1)N1CCC(=O)N(CC(O)CN2CCC(CO)CC2)CC1 (racemic) [Example 291, (rac)-(1-[(E)-3-(3,4-Dichloro-phenyl)-acryloyl]-4-[2-hydroxy-3-(4-hydroxymethyl-piperidin-1-yl)-propyl]-[1,4]diazepan-5-one] | 404
6 | O=C(/C=C/c1ccc(Cl)c(Cl)c1)N1CCC(=O)N(CC(O)CN2CCN(C3CCCC3)CC2)CC1 (racemic) [Example 298] | 281
7 | CC(C)N1CCN(CC(O)CN2CCN(C(=O)/C=C/c3ccc(Cl)c(Cl)c3)CCC2=O)CC1C (racemic) [Example 301] | 977
8 | CC1(CO)CCCN(CC(O)CN2CCN(C(=O)/C=C/c3ccc(Cl)c(Cl)c3)CCC2=O)C1 (racemic) [Example 305] | 192
9 | COCC1(C)CCCN(CC(O)CN2CCN(C(=O)/C=C/c3ccc(Cl)c(Cl)c3)CCC2=O)C1 (racemic) [Example 306] | 391
10 | O=C(/C=C/c1ccc(Cl)c(Cl)c1)N1CCC(=O)N(CC(O)CN2CCC3(CC3)C(O)C2)CC1 (racemic) [Example 309, (rac)-1-[(E)-3-(3,4-Dichloro-phenyl)-acryloyl]-4-[2-hydroxy-3-(4-hydroxy-6-aza-spiro[2.5]oct-6-yl)-propyl]-[1,4]diazepan-5-one] | 16
11 | CN(CCO)CC(O)CN1CCN(C(=O)/C=C/c2ccc(Cl)c(Cl)c2)CCC1=O (racemic) [Example 320] | 1490
12 | CC1(CO)CCCN1CC(O)CN1CCN(C(=O)C=Cc2ccc(Cl)c(Cl)c2)CCC1=O (racemic) [Example 322] | 1200
13 | CC1(C)CN(CC(O)CN2CCN(C(=O)/C=C/c3ccc(Cl)c(Cl)c3)CCC2=O)CCC1O (racemic) [Example 324] | 215
14 | CCN(CC)C1CCN(CCN2CCN(C(=O)/C=C/c3ccc(Cl)c(Cl)c3)CCC2=O)C1 (racemic) [Example 347] | 864
15 | O=C(/C=C/c1ccc(Cl)c(Cl)c1)N1CCC(=O)N(CCN[C@@H]2CCCC[C@H]2O)CC1 (racemic) [Example 355] | 982
16 | CC1CN(CC(O)CCN2CCN(C(=O)/C=C/c3ccc(Cl)c(Cl)c3)CCC2=O)CCC1O (racemic) [Example 358] | 873
17 | COCC1CCN(CC(O)CCN2CCN(C(=O)/C=C/c3ccc(Cl)c(Cl)c3)CCC2=O)CC1 (racemic) [Example 360] | 179
18 | C[C@@H]1CN(CC(O)CCN2CCN(C(=O)/C=C/c3ccc(Cl)c(Cl)c3)CCC2=O)CC[C@H]1O (mixture of isomers) [Example 372, (rac)-1-[(E)-3-(3,4-Dichloro-phenyl)-acryloyl]-4-[3-hydroxy-4-(trans-4-hydroxy-3-methyl-piperidin-1-yl)-butyl]-[1,4]diazepan-5-one] | 1230
19 | O=C(/C=C/c1ccc(Cl)c(Cl)c1)N1CCC(=O)N(CCC(O)CN2CCC(CO)CC2)CC1 (racemic) [Example 379] | 1500
20 | CC1(CO)CCCN1CC(O)CCN1CCN(C(=O)/C=C/c2ccc(Cl)c(Cl)c2)CCC1=O (racemic) [Example 381] | 236
21 | O=C(/C=C/c1ccc(F)c(Cl)c1)N1CCC(=O)N(CCCCN2CCCC(CO)C2)CC1 (racemic) [Example 385] | 310
22 | O=C(/C=C/c1ccc(F)c(Cl)c1)N1CCC(=O)N(CCCCN2CCCCC2CO)CC1 (racemic) [Example 387] | 584
23 | O=C(/C=C/c1ccc(F)c(Cl)c1)N1CCC(=O)N(CCCCN2CC[C@H](O)[C@H](F)C2)CC1 (racemic) [Example 390] | 1100

Further lines, results first:

Row | IC50 [nM] | Compound
24 | 4 | CC1(C)CCN(CCCN2CCN(C(=O)/C=C/c3ccc(Cl)c(Cl)c3)CCC2=O)CC1O (racemic) [Example 274]
25 | 1290 | CN(C)C1CCN(CCCN2CCN(C(=O)/C=C/c3ccc(Cl)c(Cl)c3)CCC2=O)C1 (racemic) [Example 277, (rac)-1-[(E)-3-(3,4-Dichloro-phenyl)-acryloyl]-4-[3-(3-dimethylamino-pyrollidin-1-yl)-propyl]-[1,4]diazepan-5-one]
26 | 540 | CCN(CC)C1CCN(CCCN2CCN(C(=O)/C=C/c3ccc(Cl)c(Cl)c3)CCC2=O)C1 (racemic) [Example 278, (rac)-1-[(E)-3-(3,4-Dichloro-phenyl)-acryloyl]-4-[3-(3-diethylamino-pyrollidin-1-yl)-propyl]-[1,4]diazepan-5-one]
27 | 21 | CC1CCN(CC(O)CN2CCN(C(=O)/C=C/c3ccc(Cl)c(Cl)c3)CCC2=O)CC1O (racemic) [Example 280]
28 | 212 | C[C@H]1[C@H](O)CCCN1CC(O)CN1CCN(C(=O)/C=C/c2ccc(Cl)c(Cl)c2)CCC1=O (mixture of isomers) [Example 282]
29 | 311 | COC1CCCN(CC(O)CN2CCN(C(=O)/C=C/c3ccc(Cl)c(Cl)c3)CCC2=O)C1 (racemic) [Example 283]
30 | 296 | O=C(/C=C/c1ccc(Cl)c(Cl)c1)N1CCC(=O)N(CC(O)CN2CCCC(CO)C2)CC1 (racemic) [Example 289]
31 | 199 | O=C(/C=C/c1ccc(Cl)c(Cl)c1)N1CCC(=O)N(CC(O)CN2CCCCC2CO)CC1 (racemic) [Example 290]
32 | 1120 | COCC1CCCN(CC(O)CN2CCN(C(=O)/C=C/c3ccc(Cl)c(Cl)c3)CCC2=O)C1 (racemic) [Example 293]
33 | 298 | CC(C)N1CCN(CC(O)CN2CCN(C(=O)/C=C/c3ccc(Cl)c(Cl)c3)CCC2=O)CC1 (racemic) [Example 296]
34 | 981 | CC1CN(CC(O)CN2CCN(C(=O)/C=C/c3ccc(Cl)c(Cl)c3)CCC2=O)CCC1O (racemic) [Example 300]
35 | 257 | CC1(O)CCCN(CC(O)CN2CCN(C(=O)/C=C/c3ccc(Cl)c(Cl)c3)CCC2=O)C1 (racemic) [Example 303]
36 | 717 | C[C@@H]1CCN(CC(O)CN2CCN(C(=O)/C=C/c3ccc(Cl)c(Cl)c3)CCC2=O)C[C@H]1O (mixture of isomers) [Example 315, (rac)-1-[(E)-3-(3,4-Dichloro-phenyl)-acryloyl]-4-[2-hydroxy-3-(trans-3-hydroxy-4-methyl-piperidin-1-yl)-propyl]-[1,4]diazepan-5-one]
37 | 755 | C[C@@H]1CN(CC(O)CN2CCN(C(=O)/C=C/c3ccc(Cl)c(Cl)c3)CCC2=O)CC[C@H]1O (mixture of isomers) [Example 316, (rac)-1-[(E)-3-(3,4-Dichloro-phenyl)-acryloyl]-4-[2-hydroxy-3-(trans-4-hydroxy-3-methyl-piperidin-1-yl)-propyl]-[1,4]diazepan-5-one]
38 | 528 | O=C(/C=C/c1ccc(Cl)c(Cl)c1)N1CCC(=O)N(CC(O)CN2CCC(O)C3(CC3)C2)CC1 (racemic) [Example 317]
39 | 707 | C[C@@H]1CN(CC(O)CN2CCN(C(=O)C=Cc3ccc(Cl)c(Cl)c3)CCC2=O)CC[C@@H]1O (mixture of isomers) [Example 318]

Row | IC50 [nM] | Compound
40 | 265 | CC1(CO)CCN(CC(O)CN2CCN(C(=O)/C=C/c3ccc(Cl)c(Cl)c3)CCC2=O)CC1 (racemic) [Example 319]
41 | 741 | CC(C)CN1CCN(CC(O)CN2CCN(C(=O)C=Cc3ccc(Cl)c(Cl)c3)CCC2=O)CC1 (racemic) [Example 325]
42 | 999 | O=C(/C=C/c1ccc(Cl)c(Cl)c1)N1CCC(=O)N(CC(O)CN2CCC3(CCCO3)CC2)CC1 (racemic) [Example 326]
43 | 765 | CC1CCCN1CCN1CCN(C(=O)/C=C/c2ccc(Cl)c(Cl)c2)CCC1=O (racemic) [Example 348]
44 | 807 | CC1CCN(CC(O)CCN2CCN(C(=O)/C=C/c3ccc(Cl)c(Cl)c3)CCC2=O)CC1O (racemic) [Example 359]
45 | 226 | COCC1CCCN(CC(O)CCN2CCN(C(=O)/C=C/c3ccc(Cl)c(Cl)c3)CCC2=O)C1 (racemic) [Example 361]
46 | 73 | CC1(CO)CCCCN1CC(O)CCN1CCN(C(=O)/C=C/c2ccc(Cl)c(Cl)c2)CCC1=O (racemic) [Example 363]
47 | 531 | COC(=O)NC1CCN(CC(O)CCN2CCN(C(=O)/C=C/c3ccc(Cl)c(Cl)c3)CCC2=O)CC1 (racemic) [Example 364]
48 | 341 | CC(=O)NC1CCN(CC(O)CCN2CCN(C(=O)/C=C/c3ccc(Cl)c(Cl)c3)CCC2=O)CC1 (racemic) [Example 370]
49 | 580 | O=C(/C=C/c1ccc(Cl)c(Cl)c1)N1CCC(=O)N(CCC(O)CN2CCCCC2CO)CC1 (racemic) [Example 374]
50 | 274 | CC1CCCCN1CC(O)CCN1CCN(C(=O)/C=C/c2ccc(Cl)c(Cl)c2)CCC1=O (racemic) [Example 375]
51 | 416 | CC1CCCN(CC(O)CCN2CCN(C(=O)/C=C/c3ccc(Cl)c(Cl)c3)CCC2=O)C1 (racemic) [Example 376]
52 | 697 | CC1CCN(CC(O)CCN2CCN(C(=O)/C=C/c3ccc(Cl)c(Cl)c3)CCC2=O)CC1 (racemic) [Example 377]
53 | 1240 | O=C(/C=C/c1ccc(Cl)c(Cl)c1)N1CCC(=O)N(CCC(O)CN2CCCC(CO)C2)CC1 (racemic) [Example 378]
54 | 198 | O=C(/C=C/c1ccc(F)c(Cl)c1)N1CCC(=O)N(CCCCN2CCCC(O)C2)CC1 (racemic) [Example 383]
